Laboratory results: patent EP1067939B1, “USE OF STEROIDAL ALKALOID DERIVATIVES AS INHIBITORS OF HEDGEHOG PROTEIN SIGNALING PATHWAYS” (The Johns Hopkins University, priority 1998, dated 1999)

Test system: chick embryos
Details: in ovo, highest concentrations tested, 50µM
Excerpt: • 1. M. Hammerschmidt, A. Brook, A. P. McMahon, Trends Genet, 13, 14-21 (1997). • 2. C. Chiang, et al., Nature, 383,407-413 (1996). • 3. Y. Tanabe, T. M. Jessell, Science 274, 1115-1123 (1996). • 4. T. P. Yamaguchi, Curr. Opin. Genet. Dev. 7, 513-518 (1997). • 5. N. Shubin, C. Tabin, S. Carroll, Nature 388, 639-648 (1997). • 6. A. E. Oro, et al., Science 276, 817-821 (1997). • 7. M. M. Cohen, K. K. Sulik, J. Craniofac. Genet. Deve. Biol. 12, 196-244 (1992). • 8. E. Belloni, et al., Nature Genet. 14, 353-356 (1996). • 9. E. Roessler, et al., Nature Genet. 14, 357-360 (1996). • 10. J. A. Porter, et al., Nature 374, 363-366 (1995). • 11. J. A. Porter, K. E. Young, P. A. Beacy, Science 274, 255-259 (1996b). • 12. J. J. Lee, et al., Science 266, 1528-1537 (1994). • 13. J. A. Porter, et al., Cell 86, 21-34 (1996a). • 14. C. Roux, Arch. Franc. Pediatr. 21, 451-464 (1964). • 15. C. Roux, C. R. Soc. Biol. 160, 1353-1357 (1966). • 16. D. B. Dehart, L. Lanoue, G. S. Tinit, K. K. Sulik, Am J. Med. Genet. 68, 328-337 (1997). • 17. M. Kraml, J. F. Bagli, D. Dvornik, Biochem. and Biophysical Res. Com. 15, 455-457 (1964). • 18. J. Avigan, D. Steinberg, H. E. Vroman, M. J. Thompson, E. Mosettig, J. Biol. Chem 235, 3123-3126 (1960). • 19. R. B. Clayton, A. N. Nelson, I. D. Frantz Jr., J. Lipid Res. 4, 166-178 (1963). • 20. J. Aufenanger, J. Pill, K. Stegmeier, F. H. Schmidt, Horm. Metabol. Res. 17, 612-613 (1986). • 21. […] G. Popjak, A. Meenean, E. J. Parish, W. D. Nes, J. Biol. Chem 264,6230-6238 (1989). • 23. H. Yoshikawa, Brain Deve. 13, 115-120 (1991). • 24. R. I. Kelley, et al., Am. J. Of Med. Gen. 66, 478-484 (1996). • 25. G. S. Tint, et al., New England Journal of Medicine 330, 107-113 (1994). • 26. T.E. Willnow, et al., Proc. Natl. Acad. Sci USA 93, 8460-8464 (1996). • 27. S. Stefansson, D. A. Chappell, K. M. Argraves, D. K. Strickland, W. S. Argraves, J. Biol. Chem. 270, 19417-19421 (1995). • 28. W. Binns, L. F. James, J. L. Shupe, G. Everett, Am. J. Vet. Res. 24, 1164-1174 (1963). • 29. R. F. Keeler, W. Binns, Teratology 1, 5-10 (1968). • 30. P. A. Beachy, et al., CSH Symp. Quant. Biol. 62, in press (1997). • 31. […]

SMILES: CC1=C2C[C@H]3[C@@H](CC=C4C[C@@H](O)CC[C@@]43C)[C@@H]2CC[C@]12O[C@@H]1C[C@H](C)CN[C@H]1[C@H]2C [Cyclopamine, cyclopamine]
- embryos displayed normal morphology: 2/10
